Assay results published in patent publication US9693992B2 (MannKind Corporation, priority 2010, dated 2017).

The molecules below were run against IRE-1α (Homo sapiens (Human), UniProt O75460) (assay: Cellular EC50: endogenous XBP-1 splicing in myeloma cells (MM.1s, DTT stress, RT-PCR)). Conditions: average cellular EC50, XBP-1 splicing in myeloma cells.
IRE-1α, sequence (O75460 19-977): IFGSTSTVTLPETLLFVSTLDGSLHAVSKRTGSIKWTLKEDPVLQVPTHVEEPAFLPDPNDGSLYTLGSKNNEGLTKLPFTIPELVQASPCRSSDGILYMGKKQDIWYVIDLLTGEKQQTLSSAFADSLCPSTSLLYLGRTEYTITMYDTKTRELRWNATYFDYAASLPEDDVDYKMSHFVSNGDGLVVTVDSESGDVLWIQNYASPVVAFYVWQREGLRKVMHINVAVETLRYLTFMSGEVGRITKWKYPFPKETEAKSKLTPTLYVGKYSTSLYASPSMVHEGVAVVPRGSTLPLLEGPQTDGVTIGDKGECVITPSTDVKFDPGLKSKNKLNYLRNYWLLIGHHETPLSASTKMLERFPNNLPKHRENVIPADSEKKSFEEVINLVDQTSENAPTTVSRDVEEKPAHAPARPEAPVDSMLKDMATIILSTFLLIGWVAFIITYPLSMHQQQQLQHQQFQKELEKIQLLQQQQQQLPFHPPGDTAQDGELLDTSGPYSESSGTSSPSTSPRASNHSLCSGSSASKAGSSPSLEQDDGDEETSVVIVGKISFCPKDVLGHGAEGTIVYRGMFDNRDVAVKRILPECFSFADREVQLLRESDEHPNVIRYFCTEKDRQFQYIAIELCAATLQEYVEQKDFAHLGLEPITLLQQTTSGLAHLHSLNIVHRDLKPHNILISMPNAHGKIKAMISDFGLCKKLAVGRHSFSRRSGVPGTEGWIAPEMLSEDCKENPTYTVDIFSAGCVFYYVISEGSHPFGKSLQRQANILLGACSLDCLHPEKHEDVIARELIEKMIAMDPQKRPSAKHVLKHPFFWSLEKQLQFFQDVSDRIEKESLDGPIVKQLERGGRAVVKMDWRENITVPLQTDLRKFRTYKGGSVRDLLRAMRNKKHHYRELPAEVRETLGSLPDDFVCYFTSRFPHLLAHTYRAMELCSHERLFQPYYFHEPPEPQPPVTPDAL
Format: cell-based
Protocol: Human myeloma MM.1s cells are incubated with a compound for 1.25 hours before stressing the cells with 2 mM dithiothreitol (DTT). After an additional 45 minutes (2 hours total) with compound and DTT, the cells are harvested with TRIZOL® (a mono-phasic solution of phenol and guanidine isothiocyanate), and total RNA is prepared as directed by the manufacturer (Invitrogen). Human XBP-1 is amplified by RT-PCR with the following primers, which flank the 26 base unconventional intron excised by IRE-1α:
RT-PCR of unstressed (U) cells then generates the upper band. When cells are stressed (S) with the endoplasmic reticulum (ER) stressing agent DTT, IRE-1α is activated due to accumulating unfolded protein and the resulting RT-PCR product is 26 base pairs shorter.
Compounds which pass specificity assays are assayed for cellular EC50 using endogenous XBP-1 splicing in myeloma cells. XBP-1 is regulated through the excision of a 26 nucleotide intron from the XBP-1 mRNA by the highly specific endoribonuclease activity of IRE-1α. […] This splicing event is used to measure IRE-1α activity on XBP-1 mRNA in cells and tissues.
Briefly, compounds are incubated in the presence or absence of an ER stress agent (e.g., DTT), and the ratio of XBP-1u (unspliced) to XBP-1s (spliced) is quantified by RT-PCR. The ED50 is determined as the 50% XBP-1s to total XPB-1 levels.
In the case of `Cc1c(-c2ccc(C(=O)NCCN3CCOCC3)cc2)c(=O)oc2c(C=O)c(O)ccc12` [Example 3], the EC50 is reported as under 10 µM.
`CC(C)c1cc(=O)oc2c(C=O)c(O)ccc12` [Example 5] was tested, and the EC50 was under 10 µM.
In the case of `O=Cc1c(O)ccc2cc(C(=O)O)c(=O)oc12` [Example 8], the EC50 is reported as over 10 µM.
With `Cc1c(-c2cccc(C(=O)N3CCN(C)CC3)c2)c(=O)oc2c(C=O)c(O)ccc12` [Example 10] the EC50 was under 10 µM.
Molecule `Cc1c(-c2cccc(C(=O)NCCN3CCOCC3)c2)c(=O)oc2c(C=O)c(O)ccc12` [Example 11] has an EC50 of under 10 µM.
`Cc1c(-c2ccc(C(=O)N3CCOCC3)cc2)c(=O)oc2c(C=O)c(O)ccc12` [Example 12] showed an EC50 of under 10 µM.
`Cc1c(-c2ccc(N3CCN(C)CC3)nc2)c(=O)oc2c(C=O)c(O)ccc12` [Example 14] showed an EC50 of under 10 µM.
`Cc1c(CCC(=O)N2CCN(C)CC2)c(=O)oc2c(C=O)c(O)ccc12` [Example 15] showed an EC50 of under 10 µM.
`Cc1c(-c2ccc(C(=O)N(C)C)cc2)c(=O)oc2c(C=O)c(O)ccc12` [Example 17] showed an EC50 of under 10 µM.
`Cc1c(-c2cccc(C(=O)N(C)C)c2)c(=O)oc2c(C=O)c(O)ccc12` [Example 20] was tested, and the EC50 was over 10 µM.
Work on `Cc1cc(=O)oc2c(C=O)c(O)c(Cl)cc12` [Example 22] yielded an EC50 of under 10 µM.
Molecule `O=Cc1c(O)ccc2c1CCN(Cc1ccccc1)C2` [Example 28] has an EC50 of over 10 µM.
Work on `CN1CCN(C(=O)c2cnc(N3CCc4c(ccc(O)c4C=O)C3)s2)CC1` [Example 33] yielded an EC50 of over 10 µM.
In the case of `Cc1nc(N2CCc3c(ccc(O)c3C=O)C2)sc1C(=O)NC1CCNCC1` [Example 35], the EC50 is reported as over 10 µM.
`Cc1nc(N2CCc3c(ccc(O)c3C=O)C2)sc1C(=O)NC1CCN(C)CC1` [Example 36] was tested, and the EC50 was over 10 µM.
For `Cc1nc(N2CCc3c(ccc(O)c3C=O)C2)sc1C(=O)NCCN1CCOCC1` [Example 37], the EC50 was over 10 µM.
`CN1CCN(c2ncc(C(=O)N3CCc4c(ccc(O)c4C=O)C3)s2)CC1` [Example 38] was tested, and the EC50 was over 10 µM.
Work on `CCc1cc2c(=O)c(-c3nc(C)cs3)coc2c(C=O)c1O` [Example 39] yielded an EC50 of over 10 µM.
Molecule `O=Cc1c(O)ccc2c(=O)c(-c3cnn(-c4ccccc4)c3)coc12` [Example 40] has an EC50 of over 10 µM.
Work on `CN1CCN(C(=O)c2ccc(-c3ccc4c(C=O)c(O)ccc4n3)cc2)CC1` [Example 41] yielded an EC50 of under 10 µM.
Work on `CN1CCN(C(=O)c2cccc(-c3ccc4c(C=O)c(O)ccc4n3)c2)CC1` [Example 42] yielded an EC50 of under 10 µM.
Work on `O=Cc1c(O)ccc2nc(-c3ccc(C(=O)N4CCOCC4)cc3)ccc12` [Example 44] yielded an EC50 of under 10 µM.
For `O=Cc1c(O)ccc2nc(-c3ccc(C(=O)NCCN4CCOCC4)cc3)ccc12` [Example 45], the EC50 was under 10 µM.
In the case of `O=Cc1c(O)ccc2nc(-c3cccc(C(=O)NCCN4CCOCC4)c3)ccc12` [Example 46], the EC50 is reported as under 10 µM.
In the case of `O=Cc1c(O)ccc2nc(SCC(=O)O)[nH]c12` [Example 63], the EC50 is reported as over 10 µM.
`O=Cc1c(O)ccc2nc(-c3cccc(C(=O)O)c3)[nH]c12` [Example 64] gave an EC50 of over 10 µM.
For `COC(=O)c1cccc(-c2nc3ccc(O)c(C=O)c3[nH]2)c1` [Example 65], the EC50 was under 10 µM.
`Cc1c(-c2ccc(C(=O)N3CCOCC3)cc2)c(=O)oc2c(C=O)c(O)c(Cl)cc12` [Example 67] showed an EC50 of over 10 µM.
`CCOC(=O)c1sc(-c2cc3ccc(O)c(C=O)c3oc2=O)nc1C` [Example 68] showed an EC50 of under 10 µM.
`Cc1c(CC(=O)O)c(=O)oc2c(C=O)c(O)ccc12` [Example 70] showed an EC50 of over 10 µM.
Molecule `Cc1oc2c(C=O)c(O)ccc2c(=O)c1CCC(=O)N1CCN(C)CC1` [Example 88] has an EC50 of over 10 µM.
In the case of `COc1cc2c(=O)c(CCC(=O)NCCN3CCOCC3)c(C)oc2c(C=O)c1O` [Example 93], the EC50 is reported as over 10 µM.
With `COc1cc2c(=O)c(CCC(=O)N3CCN(C)CC3)c(C)oc2c(C=O)c1O` [Example 94] the EC50 was over 10 µM.
`CCOC(=O)c1cnc(-c2cc3ccc(O)c(C=O)c3oc2=O)s1` [Example 106] gave an EC50 of under 10 µM.
`CN1CCN(C(=O)c2cnc(-c3cc4ccc(O)c(C=O)c4oc3=O)s2)CC1` [Example 107] gave an EC50 of under 10 µM.
For `Cc1nc(-c2cc3ccc(O)c(C=O)c3oc2=O)sc1C(=O)N1CCN(C)CC1` [Example 108], the EC50 was under 10 µM.
For `Cc1nc(-c2cc3ccc(O)c(C=O)c3oc2=O)sc1C(=O)NCCN1CCOCC1` [Example 109], the EC50 was under 10 µM.
`Cc1nc(-c2c(C)c3ccc(O)c(C=O)c3oc2=O)sc1C(=O)N1CCN(C)CC1` [Example 110] gave an EC50 of under 10 µM.
`COc1cc2c(C)c(-c3ccc(C(=O)N4CCN(C)CC4)cc3)c(=O)oc2c(C=O)c1O` [Example 111] showed an EC50 of under 10 µM.
For `Cc1c(/C=C/C(=O)N2CCN(C)CC2)c(=O)oc2c(C=O)c(O)ccc12` [Example 112], the EC50 was under 10 µM.
`COc1cc2c(C)c(-c3ccc(N4CCN(C)CC4)nc3)c(=O)oc2c(C=O)c1O` [Example 113] was tested, and the EC50 was under 10 µM.
Molecule `COc1cc2c(C)c(-c3ccc(N4CCOCC4)nc3)c(=O)oc2c(C=O)c1O` [Example 114] has an EC50 of under 10 µM.
`COc1cc2c(C)c(-c3ccc(N(C)C)nc3)c(=O)oc2c(C=O)c1O` [Example 115] was tested, and the EC50 was under 10 µM.
With `[2H]C(=O)c1c(O)ccc2c(C)c(-c3ccc(C(=O)NCCN4CCOCC4)cc3)c(=O)oc12` [Example 116] the EC50 was under 10 µM.
`CCc1cc2c(C)c(-c3ccc(C(=O)NCCN4CCOCC4)cc3)c(=O)oc2c(C=O)c1O` [Example 117] was tested, and the EC50 was under 10 µM.
Work on `CCc1cc2c(C)c(-c3ccc(C(=O)NCCOC)cc3)c(=O)oc2c(C=O)c1O` [Example 118] yielded an EC50 of under 10 µM.
Work on `CCc1cc2c(C)c(-c3ccc(C(=O)N4CCOCC4)cc3)c(=O)oc2c(C=O)c1O` [Example 119] yielded an EC50 of over 10 µM.
In the case of `COc1cc(O)c(C=O)c2oc(=O)cc(C)c12` [Example 120], the EC50 is reported as under 10 µM.
In the case of `COCCOc1cc(O)c(C=O)c2oc(=O)cc(C)c12` [Example 121], the EC50 is reported as under 10 µM.
In the case of `COCc1cc(=O)oc2c(C=O)c(O)cc(OC)c12` [Example 122], the EC50 is reported as under 10 µM.
`COCCc1c(C)c2c(O)cc(O)c(C=O)c2oc1=O` [Example 123] gave an EC50 of under 10 µM.
`COCCc1c(C)c2c(OC)cc(O)c(C=O)c2oc1=O` [Example 124] showed an EC50 of under 10 µM.
Molecule `COCCc1c(C)c2cc(OC)c(O)c(C=O)c2oc1=O` [Example 125] has an EC50 of under 10 µM.
In the case of `C=CCc1c(C)c2c(OC)cc(O)c(C=O)c2oc1=O` [Example 126], the EC50 is reported as under 10 µM.
Work on `COCCOCCc1c(C)c2cc(OC)c(O)c(C=O)c2oc1=O` [Example 127] yielded an EC50 of under 10 µM.
`Cc1c(CC(=O)N2CCOCC2)c(=O)oc2c(C=O)c(O)ccc12` [Example 129] was tested, and the EC50 was under 10 µM.
`Cc1c(CC(=O)N2CCN(C)CC2)c(=O)oc2c(C=O)c(O)ccc12` [Example 130] was tested, and the EC50 was under 10 µM.
With `CCOC(=O)Cc1c(C)c2cc(OC)c(O)c(C=O)c2oc1=O` [Example 131] the EC50 was under 10 µM.
In the case of `COc1cc2c(CN3CCOCC3)c(C)c(=O)oc2c(C=O)c1O` [Example 132], the EC50 is reported as under 10 µM.
For `COc1cc2c(CN(C)C)c(C)c(=O)oc2c(C=O)c1O` [Example 133], the EC50 was under 10 µM.
`COc1cc(O)c(C=O)c2oc(=O)c(C)c(CN3CCOCC3)c12` [Example 134] gave an EC50 of under 10 µM.
`COc1cc(O)c(C=O)c2oc(=O)c(C)c(CN(C)C)c12` [Example 135] showed an EC50 of under 10 µM.
`COCc1cc(=O)oc2c(C=O)c(O)c(OC)cc12` [Example 136] showed an EC50 of under 10 µM.
In the case of `COCc1c(C)c(=O)oc2c(C=O)c(O)ccc12` [Example 137], the EC50 is reported as under 10 µM.
`COCCNC(=O)CCc1c(COC)c2cc(OC)c(O)c(C=O)c2oc1=O` [Example 138] gave an EC50 of over 10 µM.
With `COCc1c(CCC(=O)N2CCOCC2)c(=O)oc2c(C=O)c(O)c(OC)cc12` [Example 139] the EC50 was under 10 µM.
Molecule `COCc1c(CCC(=O)NCCN2CCOCC2)c(=O)oc2c(C=O)c(O)c(OC)cc12` [Example 140] has an EC50 of over 10 µM.
For `COc1cc2c(C)c(-c3ccc(C(=O)N4CCN(C)CC4)s3)c(=O)oc2c(C=O)c1O` [Example 141], the EC50 was under 10 µM.
With `COc1cc2c(C)c(-c3ccc(C(=O)N4CCOCC4)s3)c(=O)oc2c(C=O)c1O` [Example 142] the EC50 was under 10 µM.
`COc1cc2c(C)c(-c3ccc(C(=O)NCCN4CCOCC4)s3)c(=O)oc2c(C=O)c1O` [Example 143] gave an EC50 of under 10 µM.
`CCOC(=O)CCc1c(C)c2cc(N(C)C(C)=O)c(O)c(C=O)c2oc1=O` [Example 144] gave an EC50 of over 10 µM.
With `COCCOCCc1c(C)c2c(OC)cc(O)c(C=O)c2oc1=O` [Example 145] the EC50 was under 10 µM.
In the case of `COc1cc2c(C(C)C)cc(=O)oc2c(C=O)c1O` [Example 146], the EC50 is reported as under 10 µM.
`COc1cc2c(C)c(CCC(=O)NCCO)c(=O)oc2c(C=O)c1O` [Example 147] was tested, and the EC50 was over 10 µM.
For `COc1cc2c(C)c(CC(=O)NCCO)c(=O)oc2c(C=O)c1O` [Example 148], the EC50 was over 10 µM.
With `COCOCCNC(=O)Cc1c(C)c2cc(OC)c(O)c(C=O)c2oc1=O` [Example 149] the EC50 was under 10 µM.
With `COCCNC(=O)c1ccc(-c2c(C)c3cc(Cl)c(O)c(C=O)c3oc2=O)cc1` [Example 150] the EC50 was over 10 µM.
`Cc1c(-c2ccc(C(=O)NCCN3CCOCC3)cc2)c(=O)oc2c(C=O)c(O)c(Cl)cc12` [Example 151] gave an EC50 of over 10 µM.
`COCCNC(=O)CCc1c(C)c2c(OCCOC)cc(O)c(C=O)c2oc1=O` [Example 152] was tested, and the EC50 was under 10 µM.
Molecule `COCCOc1cc(O)c(C=O)c2oc(=O)c(CCC(=O)N3CCOCC3)c(C)c12` [Example 153] has an EC50 of under 10 µM.
In the case of `COCCOc1cc(O)c(C=O)c2oc(=O)c(CCC(=O)N3CCN(C)CC3)c(C)c12` [Example 154], the EC50 is reported as under 10 µM.
Molecule `CCNC(=O)CCc1c(C)c2c(OCCOC)cc(O)c(C=O)c2oc1=O` [Example 155] has an EC50 of under 10 µM.
